Patent publication US12522596B2, “Compounds as GLP-1R agonists” (Terns Pharmaceuticals, Inc., priority 2021, dated 2026)
Where two headings read alike, the source gives them in different places.

Assay: Pharmacokinetics in hGLP-1R mice after oral dosing
Assay type: in vivo, male C57BL/6J hGLP-1R mouse
Conditions: male, C57BL/6J hGLP-1R, mouse, plasma, po; for AUC0-inf: read-out: AUC0-inf; for MRT inf: read-out: MRT0-inf; for MRT last: read-out: MRT0-last; for concentration at 120 min: hGLP-1R mouse plasma collected at 120 min (IPGTT cohort)
Procedure: IPGTT (120 min)—PK bleeding: 40 μL blood samples (all treatment groups) were collected from mice under the jaw at IPGTT-120 min after blood glucose measurement into pre-chilled EDTA-2K tubes. Blood samples were processed for plasma by centrifugation at 4° C., 3200×g for 10 min. 15 μL plasma was stored at −80° C. for PK analysis. From 4 mice in Group 7 of the PD cohort, whole brain was collected after blood is harvested at 120 min post dose, rinsed with saline and patted dry and placed into a pre-weighed tube and stored at −80° C. collected for PK analysis.
PK bleeding group design is described in Table 9.
PK bleeding: 30 μL blood was collected at 0.25, 0.5, 1, 2, 4, and 8 h. Blood samples were processed for plasma by centrifugation at 4° C., 3200×g for 10 min. 12 μL plasma was collected at −80° C. for further analysis. From 3 mice in Group 7 of the PK cohort, whole brain was collected after blood is harvested at 8 hr post dose, rinsed with saline and patted dry and placed into a pre-weighed tube and stored at −80° C. collected for PK analysis.
For plasma: An aliquot of 3 μL sample was protein precipitated with 60 μL internal standard (100 ng/mL Labetalol & 100 ng/ml Dexamethasone & 100 ng/ml Tolbutamide & 100 ng/mL Verapamil & 100 ng/ml Glyburide & 100 ng/ml Celecoxib in ACN) and then the mixture was vortex-mixed for 10 min at 800 rpm and centrifuged for 15 min at 3220×g, 4° C.
The linear/log trapezoidal rule was applied in obtaining the PK parameters. Individual plasma concentration values that were below the lower limit of quantitation (LOQ) were excluded from the PK parameter calculation. The nominal dose levels and nominal sampling times were used in the calculation of all pharmacokinetic parameters.

[1] = 0.3 mg/kg, hGLP-1R mouse plasma, PO 0.3 mg/kg, read-out: Mean Concentration
[2] = 0.3 mg/kg, hGLP-1R mouse plasma, PO 0.3 mg/kg, individual animals, read-out: Concentration
[3] = 0.3 mg/kg, hGLP-1R mouse plasma, PO 0.3 mg/kg, mean
[4] = 1 mg/kg, hGLP-1R mouse plasma, PO 1 mg/kg, individual animals, read-out: Concentration
[5] = 1 mg/kg, hGLP-1R mouse plasma, PO 1 mg/kg, read-out: Mean Concentration
[6] = 1 mg/kg, hGLP-1R mouse plasma, PO 1 mg/kg, individual mice
[7] = 1 mg/kg, hGLP-1R mouse plasma, PO 1 mg/kg, mean
[8] = 3 mg/kg, hGLP-1R mouse plasma, PO 3 mg/kg, read-out: Mean Concentration
[9] = 3 mg/kg, hGLP-1R mouse plasma, PO 3 mg/kg, mean

SMILES: N#Cc1ccc(COc2cccc(C3CCN(Cc4nc5ccc(C(=O)O)cc5n4Cc4cncs4)CC3)n2)c(F)c1 [Compound 2]
- concentration at 0.5 h [1]: 80.6 ng/mL
- concentration at 1 h [2]: 43.3 ng/mL
- concentration at 1 h [1]: 49.4 ng/mL
- concentration at 2 h (0.3 mg/kg, hGLP-1R mouse plasma, PO 0.3 mg/kg): 10.6 ng/mL
- concentration at 4 h [1]: 3.74 ng/mL
- concentration at 8 h [2]: 2.34 ng/mL
- concentration at 8 h [1]: 1.99 ng/mL
- AUC0-inf (0.3 mg/kg, hGLP-1R mouse plasma, PO 0.3 mg/kg, individual mice): 124 ng·h/mL
- AUC(0-t) (0.3 mg/kg, hGLP-1R mouse plasma, PO 0.3 mg/kg, individual mice, read-out: AUC0-last): 117 ng·h/mL
- Cmax (0.3 mg/kg, hGLP-1R mouse plasma, PO 0.3 mg/kg, individual mice, read-out: Cmax): 63.4 ng/mL
- Tmax (0.3 mg/kg, hGLP-1R mouse plasma, PO 0.3 mg/kg, individual mice, read-out: Tmax): 0.5 h
- AUC0-inf [3]: 111 ng·h/mL
- AUC(0-t) (0.3 mg/kg, hGLP-1R mouse plasma, PO 0.3 mg/kg, mean, read-out: AUC0-last): 107 ng·h/mL
- Cmax (0.3 mg/kg, hGLP-1R mouse plasma, PO 0.3 mg/kg, mean, read-out: Cmax): 82.7 ng/mL
- MRT inf [3]: 1.7 h
- MRT last [3]: 1.4 h
- half-life (0.3 mg/kg, hGLP-1R mouse plasma, PO 0.3 mg/kg, mean, read-out: T1/2 (converted)): 1.4 h
- Tmax (0.3 mg/kg, hGLP-1R mouse plasma, PO 0.3 mg/kg, mean, read-out: Tmax): 0.417 h
- AUC(0-t) (1 mg/kg, hGLP-1R mice, total, PO 1.0 mg/kg, read-out: AUClast Mean): 390 ng·h/mL
- Cmax (1 mg/kg, hGLP-1R mice, total, PO 1.0 mg/kg, read-out: Cmax Mean): 283 ng/mL
- half-life (1 mg/kg, hGLP-1R mice, total, PO 1.0 mg/kg, read-out: T1/2 (converted)): 1.42 h
- Tmax (1 mg/kg, hGLP-1R mice, total, PO 1.0 mg/kg, read-out: Tmax Median): 0.5 h
- concentration at 120 min (1 mg/kg, PO 1 mg/kg, read-out: Mean Concentration): 69.8 ng/mL
- concentration at 0.25 h [4]: 320 ng/mL
- concentration at 0.25 h [5]: 251 ng/mL
- concentration at 0.5 h [4]: 329 ng/mL
- concentration at 0.5 h [5]: 283 ng/mL
- concentration at 1 h [4]: 252 ng/mL
- concentration at 1 h [5]: 197 ng/mL
- concentration at 2 h (1 mg/kg, hGLP-1R mouse plasma, PO 1 mg/kg): 48.6 ng/mL
- concentration at 4 h [4]: 7.58 ng/mL
- concentration at 4 h [5]: 7.51 ng/mL
- concentration at 8 h [5]: 4.73 ng/mL
- AUC0-inf [6]: 507 ng·h/mL
- AUC(0-t) (1 mg/kg, hGLP-1R mouse plasma, PO 1 mg/kg, individual mice, read-out: AUC0-last): 498 ng·h/mL
- Cmax (1 mg/kg, hGLP-1R mouse plasma, PO 1 mg/kg, individual mice, read-out: Cmax): 329 ng/mL
- MRT inf [6]: 1.47 h
- MRT last [6]: 1.32 h
- half-life (1 mg/kg, hGLP-1R mouse plasma, PO 1 mg/kg, individual mice, read-out: T1/2 (converted)): 1.28 h
- Tmax (1 mg/kg, hGLP-1R mouse plasma, PO 1 mg/kg, individual mice, read-out: Tmax): 0.5 h
- AUC0-inf [7]: 400 ng·h/mL
- AUC(0-t) (1 mg/kg, hGLP-1R mouse plasma, PO 1 mg/kg, mean, read-out: AUC0-last): 390 ng·h/mL
- Cmax (1 mg/kg, hGLP-1R mouse plasma, PO 1 mg/kg, mean, read-out: Cmax): 283 ng/mL
- MRT inf [7]: 1.57 h
- MRT last [7]: 1.35 h
- half-life (1 mg/kg, hGLP-1R mouse plasma, PO 1 mg/kg, mean, read-out: T1/2 (converted)): 1.42 h
- Tmax (1 mg/kg, hGLP-1R mouse plasma, PO 1 mg/kg, mean, read-out: Tmax): 0.5 h
- Tmax (3 mg/kg, hGLP-1R mice, oral, across the doses tested (0.3, 1 and, for Compound 2, 3 mg/kg), read-out: median Tmax): 0.5 h
- AUC(0-t) (3 mg/kg, hGLP-1R mice, total, PO 3.0 mg/kg, read-out: AUClast Mean): 2440 ng·h/mL
- Cmax (3 mg/kg, hGLP-1R mice, total, PO 3.0 mg/kg, read-out: Cmax Mean): 1820 ng/mL
- half-life (3 mg/kg, hGLP-1R mice, total, PO 3.0 mg/kg, read-out: T1/2 (converted)): 2.03 h
- Tmax (3 mg/kg, hGLP-1R mice, total, PO 3.0 mg/kg, read-out: Tmax Median): 0.5 h
- concentration at 120 min (3 mg/kg, PO 3 mg/kg, read-out: Mean Concentration): 277 ng/mL
- concentration at 0.25 h [8]: 1570 ng/mL
- concentration at 0.5 h [8]: 1790 ng/mL
- concentration at 1 h [8]: 990 ng/mL
- concentration at 2 h (3 mg/kg, hGLP-1R mouse plasma, PO 3 mg/kg): 304 ng/mL
- concentration at 4 h [8]: 84.4 ng/mL
- concentration at 8 h (3 mg/kg, hGLP-1R mouse plasma, PO 3 mg/kg, individual animals, read-out: Concentration): 92.1 ng/mL
- concentration at 8 h [8]: 47.5 ng/mL
- MRT last (3 mg/kg, hGLP-1R mouse plasma, PO 3 mg/kg, individual mice): 2.04 h
- Tmax (3 mg/kg, hGLP-1R mouse plasma, PO 3 mg/kg, individual mice, read-out: Tmax): 0.5 h
- AUC0-inf [9]: 2620 ng·h/mL
- AUC(0-t) (3 mg/kg, hGLP-1R mouse plasma, PO 3 mg/kg, mean, read-out: AUC0-last): 2440 ng·h/mL
- Cmax (3 mg/kg, hGLP-1R mouse plasma, PO 3 mg/kg, mean, read-out: Cmax): 1820 ng/mL
- MRT inf [9]: 2.64 h
- MRT last [9]: 1.66 h
- half-life (3 mg/kg, hGLP-1R mouse plasma, PO 3 mg/kg, mean, read-out: T1/2 (converted)): 2.03 h
- Tmax (3 mg/kg, hGLP-1R mouse plasma, PO 3 mg/kg, mean, read-out: Tmax): 0.417 h
- half-life (hGLP-1R male mice, oral, across doses, read-out: terminal T1/2): < 2 h
